This is an account of results in patent publication US20230086702A1, “SUBSTITUTED 2-AMINO-PYRAZOLYL-[1,2,4]TRIAZOLO[1,5A]PYRIDINE DERIVATIVES AND USE THEREOF” (The Johns Hopkins University, priority 2019, published 2023).

One may read the pIC50 as the negative decadic logarithm of the IC50, by convention in mol/L.

One assay addresses T1, LZK (Homo sapiens, UniProt O43283).
T1 construct: 10 nM LZK, catalytic domain, Carna Biosiences in assay buffer; purchased Carna Biosciences ('Carna Biosiences' [sic])
T1 sequence (O43283 168-409 limits assumed): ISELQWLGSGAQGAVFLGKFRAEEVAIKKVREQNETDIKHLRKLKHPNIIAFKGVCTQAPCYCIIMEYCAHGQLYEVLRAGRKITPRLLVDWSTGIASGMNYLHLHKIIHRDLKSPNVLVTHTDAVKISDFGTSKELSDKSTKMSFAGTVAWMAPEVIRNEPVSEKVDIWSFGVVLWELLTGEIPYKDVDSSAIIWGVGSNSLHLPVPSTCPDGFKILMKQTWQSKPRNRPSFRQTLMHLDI
Nature of the assay: LZK biochemical assay (TR-FRET, MKK7 phosphorylation). The procedure, abridged: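 Read-out is HTRF: Eu-labelled anti-phospho-MKK7 (T275/S277) and XL665 anti-His, incubated 16 h at 32 °C, with a drop in signal marking inhibition. Reaction beforehand: 10 nM LZK kinase domain, 15 nM His-MKK7, 15 µM ATP (final) for 90 min at room temperature, pH 7.5.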

Another assay addresses T2, DLK (Homo sapiens, UniProt Q12852).
T2 construct: 10 nM DLK, catalytic domain, Carna Biosiences; purchased Carna Biosciences ('Carna Biosiences' [sic])
T2 sequence (Q12852 125-366 limits assumed): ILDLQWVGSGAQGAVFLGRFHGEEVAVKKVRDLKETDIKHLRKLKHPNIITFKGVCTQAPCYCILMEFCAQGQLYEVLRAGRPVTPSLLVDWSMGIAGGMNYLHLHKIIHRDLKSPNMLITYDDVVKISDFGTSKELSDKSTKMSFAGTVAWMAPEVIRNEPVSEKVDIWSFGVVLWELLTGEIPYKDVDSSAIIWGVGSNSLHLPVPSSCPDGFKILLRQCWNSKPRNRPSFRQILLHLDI
Briefly: DLK biochemical assay (TR-FRET, MKK7 phosphorylation). In a few lines: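 TR-FRET read-out (665/Eu ratio) of MKK7 T275/S277 phosphorylation, with inhibition lowering the signal. Final conditions: 10 nM DLK catalytic domain, 15 nM MKK7, 60 μM ATP, 90 min at RT. Detection incubation 16 h at 37° C in 1536-well or 4° C in 384-well format.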
A general note: Time-resolved FRET reads energy transfer from a long-lived donor to a nearby acceptor.

pIC50: −log10 of the molar value.

Turning to `Nc1nc2cc(-c3cnn(C(c4ccc(C(F)(F)F)nc4)C4CCOCC4)c3)cc(-c3ccc(=O)n(CC(F)F)c3)n2n1` (single isomer, unassigned) [II-187, 5-[2-Amino-7-(1-{tetrahydro-2H-pyran-4-yl[6-(trifluoromethyl)pyridin-3-yl]methyl}-1H-pyrazol-4-yl)[1,2,4]triazolo[1,5-a]pyridin-5-yl]-1-(2,2-difluoroethyl)pyridin-2(1H)-one], the pIC50 is 9.30 against LZK and 9.70 against DLK.
On the same counts, the results for `CCC(c1ccc(C(F)(F)F)nc1)n1cc(-c2cc(-c3ccc(=O)n(CC(F)(F)F)c3)n3nc(N)nc3c2)cn1` (single isomer, unassigned) [II-189, 5-[2-Amino-7-(1-{1-[6-(trifluoromethyl)pyridin-3-yl]propyl}-1H-pyrazol-4-yl)[1,2,4]triazolo[1,5-a]pyridin-5-yl]-1-(2,2,2-trifluoroethyl)pyridin-2(1H)-one] are 7.49 and 7.82.
On the same counts, the results for `Nc1nc2cc(-c3cnn(C(c4ccc(C(F)(F)F)nc4)C4CCOCC4)c3)cc(-c3ccc(=O)n(CC(F)(F)F)c3)n2n1` (single isomer, unassigned) [II-192, 5-[2-Amino-7-(1-{tetrahydro-2H-pyran-4-yl[6-(trifluoromethyl)pyridin-3-yl]methyl}-1H-pyrazol-4-yl)[1,2,4]triazolo[1,5-a]pyridin-5-yl]-1-(2,2,2-trifluoroethyl)pyridin-2(1H)-one] are 8.66 and 8.89.
On the same counts, the results for `Nc1nc2cc(-c3cnn(C(c4ccc(C(F)(F)F)nc4)C4CCOCC4)c3)cc(-c3ccc(=O)n(CC(F)(F)F)c3)n2n1` (single isomer, unassigned) [II-193, 5-[2-Amino-7-(1-{tetrahydro-2H-pyran-4-yl[6-(trifluoromethyl)pyridin-3-yl]methyl}-1H-pyrazol-4-yl)[1,2,4]triazolo[1,5-a]pyridin-5-yl]-1-(2,2,2-trifluoroethyl)pyridin-2(1H)-one] are 7.92 and 7.82.
Turning to `Nc1nc2cc(-c3cnn(C(c4ccc(C(F)(F)F)nc4)C4CCOCC4)c3)cc(-c3cn(CC(F)(F)F)c(=O)cn3)n2n1` (single isomer, unassigned) [II-195, 5-[2-Amino-7-(1-{tetrahydro-2H-pyran-4-yl[6-(trifluoromethyl)pyridin-3-yl]methyl}-1H-pyrazol-4-yl)[1,2,4]triazolo[1,5-a]pyridin-5-yl]-1-(2,2,2-trifluoroethyl)pyrazin-2(1H)-one], the figures for the pIC50 against LZK and at DLK were 8.28 and 8.96, respectively.
For `Nc1nc2cc(-c3cnn(C(c4ccc(C(F)(F)F)nc4)C4CCOCC4)c3)cc(-c3cn(CC(F)(F)F)c(=O)cn3)n2n1` (single isomer, unassigned) [II-196, 5-[2-Amino-7-(1-{tetrahydro-2H-pyran-4-yl[6-(trifluoromethyl)pyridin-3-yl]methyl}-1H-pyrazol-4-yl)[1,2,4]triazolo[1,5-a]pyridin-5-yl]-1-(2,2,2-trifluoroethyl)pyrazin-2(1H)-one], in that order: 7.30 and 7.80.
For `Nc1nc2c(-c3ccc(C(F)(F)F)nc3)cc(-c3cnn(C4CCN(C5COC5)CC4)c3)cn2n1` [II-46, 6-{1-[1-(Oxetan-3-yl)piperidin-4-yl]-1H-pyrazol-4-yl}-8-[6-(trifluoromethyl)pyridin-3-yl][1,2,4]triazolo[1,5-a]pyridin-2-amine], in that order: 6.42 and 6.12.
`Nc1nc2cc(-c3cnn(Cc4ccccc4)c3)cc(-c3ccc(C4CC4)nc3)n2n1` [II-47, 7-(1-Benzyl-1H-pyrazol-4-yl)-5-(6-cyclopropylpyridin-3-yl)[1,2,4]triazolo[1,5-a]pyridin-2-amine]: the pIC50 on LZK is 6.92; at DLK, 7.48.
On to `Nc1nc2cc(-c3cnn(C4CCN(C5COC5)CC4)c3)cc(-c3ccc(C4CC4)nc3)n2n1` [II-83, 5-(6-Cyclopropylpyridin-3-yl)-7-{1-[1-(oxetan-3-yl)piperidin-4-yl]-1H-pyrazol-4-yl}[1,2,4]triazolo[1,5-a]pyridin-2-amine], for which the negative-log IC50 (pIC50) against LZK was 6.96; against DLK, 6.68.
On the same counts, the results for `Nc1nc2cc(-c3cnn(Cc4ccccc4)c3)cc(-c3cnc(C4CC4)nc3)n2n1` [II-84, 7-(1-Benzyl-1H-pyrazol-4-yl)-5-(2-cyclopropylpyrimidin-5-yl)[1,2,4]triazolo[1,5-a]pyridin-2-amine] are 6.54 and 7.26.
On the same counts, the results for `Nc1nc2cc(-c3cnn(Cc4ccccc4)c3)cc(-c3cnccn3)n2n1` [II-86, 7-(1-Benzyl-1H-pyrazol-4-yl)-5-(pyrazin-2-yl)[1,2,4]triazolo[1,5-a]pyridin-2-amine] are 6.05 and 7.27.
On the same counts, the results for `CCc1cnc(-c2cc(-c3cnn(Cc4ccccc4)c3)cc3nc(N)nn23)cn1` [II-87, 7-(1-Benzyl-1H-pyrazol-4-yl)-5-(5-ethylpyrazin-2-yl)[1,2,4]triazolo[1,5-a]pyridin-2-amine] are 6.28 and 7.38.
Turning to `Cc1cc(-c2cc(-c3cnn(Cc4ccccc4)c3)cc3nc(N)nn23)cnn1` [II-88, 7-(1-Benzyl-1H-pyrazol-4-yl)-5-(6-methylpyridazin-4-yl)[1,2,4]triazolo[1,5-a]pyridin-2-amine], the values for the pIC50 against LZK and on DLK were 6.21 and 6.32, respectively.
For `CC[C@@H](c1ccccc1)n1cc(-c2cc(-c3cnn(C)c3)c3nc(N)nn3c2)cn1` [II-90, 8-(1-Methyl-1H-pyrazol-4-yl)-6-{1-[(1S)-1-phenylpropyl]-1H-pyrazol-4-yl}[1,2,4]triazolo[1,5-a]pyridin-2-amine], in that order: 6.64 and 8.19.
On the same counts, the results for `CC[C@@H](c1ccccc1)n1cc(-c2cc(-c3cnn(CC)c3)c3nc(N)nn3c2)cn1` [II-91, 8-(1-Ethyl-1H-pyrazol-4-yl)-6-{1-[(1S)-1-phenylpropyl]-1H-pyrazol-4-yl}[1,2,4]triazolo[1,5-a]pyridin-2-amine] are 6.94 and 8.28.
For `CC[C@@H](c1ccccc1)n1cc(-c2cc(-c3cnn(C4CC4)c3)c3nc(N)nn3c2)cn1` [II-92, 8-(1-Cyclopropyl-1H-pyrazol-4-yl)-6-{1-[(1S)-1-phenylpropyl]-1H-pyrazol-4-yl}[1,2,4]triazolo[1,5-a]pyridin-2-amine], in that order: 6.82 and 8.17.
As to `CC[C@@H](c1ccccc1)n1cc(-c2cc(-c3cnn(CC(F)(F)F)c3)c3nc(N)nn3c2)cn1` [II-93, 6-{1-[(1S)-1-Phenylpropyl]-1H-pyrazol-4-yl}-8-[1-(2,2,2-trifluoroethyl)-1H-pyrazol-4-yl][1,2,4]triazolo[1,5-a]pyridin-2-amine], the pIC50 is 7.17 against LZK and 7.72 against DLK.
On the same counts, the results for `CC[C@@H](c1ccccc1)n1cc(-c2cc(-c3cnn(CCO)c3)c3nc(N)nn3c2)cn1` [II-97, 2-[4-(2-Amino-6-{1-[(1S)-1-phenylpropyl]-1H-pyrazol-4-yl}[1,2,4]triazolo[1,5-a]pyridin-8-yl)-1H-pyrazol-1-yl]ethan-1-ol] are 6.42 and 8.09.
Regarding `CC[C@@H](c1ccc(F)cc1)n1cc(-c2cc(-c3cnn(CC(F)(F)F)c3)c3nc(N)nn3c2)cn1` [II-98, 6-{1-[(1S)-1-(4-fluorophenyl)propyl]-1H-pyrazol-4-yl}-8-[1-(2,2,2-trifluoroethyl)-1H-pyrazol-4-yl][1,2,4]triazolo[1,5-a]pyridin-2-amine], the pIC50 against LZK was 7.25; against DLK, 7.85.
With `Nc1nc2c(-c3cnn(CC(F)(F)F)c3)cc(-c3cnn(C4CCN(C5COC5)CC4)c3)cn2n1` [II-120, 6-{1-[1-(Oxetan-3-yl)piperidin-4-yl]-1H-pyrazol-4-yl}-8-[1-(2,2,2-trifluoroethyl)-1H-pyrazol-4-yl][1,2,4]triazolo[1,5-a]pyridin-2-amine], the negative-log IC50 (pIC50) is 6.85 on LZK and 6.62 on DLK.
For the molecule `Nc1nc2cc(-c3cnn(Cc4ccccc4)c3)cc(-c3cnn(C(F)F)c3)n2n1` [II-121, 7-(1-Benzyl-1H-pyrazol-4-yl)-5-[1-(difluoromethyl)-1H-pyrazol-4-yl][1,2,4]triazolo[1,5-a]pyridin-2-amine], the figures for the negative logarithm of the IC50 (pIC50) at LZK and at DLK were 6.82 and 7.49, respectively.
For `CC(n1cc(-c2cc(-c3cnn(Cc4ccccc4)c3)cc3nc(N)nn23)cn1)C(F)(F)F` (stereo not drawn) [II-122], in that order: 7.43 and 7.41.
For `N#CCC(n1cc(-c2cc(-c3cnn(Cc4ccccc4)c3)cc3nc(N)nn23)cn1)C(F)(F)F` (stereo not drawn) [II-123], in that order: 6.82 and 7.28.
On the same counts, the results for `Nc1nc2cc(-c3cnn(Cc4ccccc4)c3)cc(-c3cnn(CC4CC4(F)F)c3)n2n1` (stereo not drawn) [II-124] are 7.14 and 8.15.
